Reference: patent publication US9056886B2, “Guanosine-rich modified oligonucleotides and antiproliferative activity thereof” (APTABIO THERAPEUTICS INC., priority 2009, dated 2015)
[5FU] = 5-fluoro-uracil base (5-fluoro-2'-deoxyuridine)

Experiments:
[1] = test system: A549 (Non-small Cell Carcinoma Cells); test: Cell apoptosis (XTT method) in A549 cells; format: cell-based
[2] = test system: PC-3 cell line (prostate cancer cell); test: Cell apoptosis (XTT method) in PC-3 cells; format: cell-based; settings: for IC50: PC3 (Prostate Cancer Cells), cultured six days, XTT
Method: (§1) Each oligonucleotide was diluted in 10 mM Tris-HCl (pH 7.4) to a final concentration of 100 μM. The diluted solution was placed at 94° C. for 5 minutes and then quickly placed them on ice and left therein for 5 minutes. The resultant was added with 2M KCl to a final concentration of 50 mM, left at 60° C. for 3 hours and then slowly cooled down to room temperature.
(§2) One day before the experiment, 190 μL of culture, wherein PC-3 cell line(prostate cancer cell) was suspended at a concentration of 10^3-10^4/mL, was inoculated respectively into each well of a 96 well plate. The next day, 10 μL of the oligonucleotide solution prepared in Example 1 was added and cultured for six days. Six days after the inoculation, cell apoptosis rate measured by means of XTT method [JBC 1999, 26369].

[3] = test system: A498 (Kidney Cancer Cells); test: Cell apoptosis (XTT method) in A498 cells; format: cell-based
[4] = test system: HCT116 (Rectal Cancer Cells); test: Cell apoptosis (XTT method) in HCT116 cells; format: cell-based
Method: [Worded in the source for another cell line; this cell line is reported under the same test.] as §1, §2
(§3) As a result, it was confirmed that the cell apoptosis rate of APT-2001, APT-2002 and APT-2003 (the novel modified oligonucleotides of the present invention), was 3-10 times higher than those of APT-4001 (positive control) and APT-4002 (negative control) as measured in terms of IC50 or IC90 (FIG. 2). […] In addition, the cell apoptotic activity of the oligonucleotides, prepared according to the present invention over the K562 CML (chronic myeloid leukemia), MV-4-11 AML (acute leukemia) cells, were also verified.

[5] = test system: MCF7 (Breast Cancer Cells); test: Cell apoptosis (XTT method) in MCF7 cells; format: cell-based
Method: [Worded in the source for another cell line; this cell line is reported under the same test.] as §1, §2, §3

[6] = test system: MCF7-DX (Breast Cancer Cells), a drug-resistance cell line; test: Cell apoptosis (XTT method) in MCF7-DX cells; format: cell-based
Method: [Worded in the source for another cell line; this cell line is reported under the same test.] as §1, §2, §3

mice = test: Toxicity test in mice; format: in vivo; settings: 1 g/kg administered, 10 mice/group, observed for the next 7 days
Method: Toxicity test was performed on the active ingredient of the present invention as follows.
Each of APT-2001, APT-2002 and APT-2003 was dissolved in dimethylsulfoxide (DMSO), diluted with water and then administered to mice (10 mice/group) in the amount of 1 g/kg.

| Substance | IC50 [1] [µM] | IC50 [2] [µM] | cell apoptotic activity compared to APT-4001 (positive control) ([2]; even at a smaller amount than APT-4001, FIG. 3) | IC50 [3] [µM] | IC50 [4] [µM] | IC50 [5] [µM] | IC50 [6] [µM] | survival of mice (mice) |
| --- | --- | --- | --- | --- | --- | --- | --- | --- |
| APT-2002: NNNGGTGGTGGTGGTTGTGGTGGTGGTGG (SEQ. ID. NO. 2); N=5-F-deoxyuridine, G=2-deoxy-guanosine, H=thymidine (DNA UUUGGTGGTGGTGGTTGTGGTGGTGGTGG; DNA, [5FU] at 1, 2, 3, backbone not given here) | 5.2 | 2.6 | superior cell apoptotic activity | < 0.1 | 2.1 | 8.9 | 0.6 | all mice survived |
| APT-4002: Negative control, TTTCCTCCTCCTCCTTCTCCTCCTCCTCC (SEQ. ID. NO. 49); thymidine, 2′-deoxycytidine (DNA, backbone not given here) [reference compound] | > 50 | > 50 | – | > 50 | > 50 | – | > 50 | – |
